{"source": "paper PMC8371461", "about": "(Frontiers in Pharmacology, 2021)", "key": {"[1]": {"biological_target": "T1, NLK (Homo sapiens, UniProt Q9UBE8)", "T1 construct": "purchased DiscoverX (KINOMEscan)", "assay": "kinome scan", "format": "binding", "details": "10 µM"}, "[2]": {"biological_target": "T2, CAMKK2 (Homo sapiens, UniProt Q96RR4)", "T2 construct": "purchased DiscoverX (KINOMEscan)", "assay": "kinome scan", "format": "binding", "details": "10 µM"}, "[3]": {"biological_target": "T3, PFCDPK1(P.falciparum) (Plasmodium falciparum, UniProt P62344)", "T3 construct": "purchased DiscoverX (KINOMEscan)", "assay": "kinome scan", "format": "binding", "details": "10 µM", "protocol": "(§1) The kinome scan analysis was performed using the DiscoverX platform (www.discoverx.com). Briefly, T7 kinase-tagged phage strains are grown in parallel in 24-well or 96-well blocks in a BL21-derived E. coli host for 90 min until lysis. Lysates are centrifuged at 6,000 x g and filtered with a 0.2 µm filter to remove cell debris. Streptavidin-coated magnetic beads are treated with biotinylated kinase ligands for 30 min at room temperature to generate the affinity resin. Bound beads are blocked with excess biotin and washed with blocking buffer (SeaBlock (Pierce), 1% BSA, 0.05% Tween 20, and 1 mM DTT) to remove unbound ligand and reduce nonspecific phage binding. […] The final concentration of test compound is 10 µM. Assay plates are incubated at room temperature with shaking for 1 h. Affinity beads are treated four times with washing buffer (1X PBS, 0.05% Tween 20, and 1 mM DTT) to remove unbound phage. […] Q RT PCR is used to measure the amount of phage in each eluate (which is proportional to the amount of kinase bound). Data is presented as the percentage of kinase bound by 10 µM of the ligand compared to the DMSO only as a control.\n(§2) Hits are identified by an ultra-sensitive quantitative PCR detecting the specific DNA tag linked to each kinase (Supplementary Figure S2). The drug is used at a concentration of 10 µM and results are expressed as the percentage of signal (kinase PCR detection) with respect to DMSO control conditions. Thirteen hits were identified, with a signal reduction ranging from 0 to 27% (Table 3). Full raw data are presented in Supplementary Table S4. Interactions between 0 and 20% of reduction were considered to be the most significant ones. […] A sub-micromolar affinity (Kd<1 µM) was only seen with two PIKs (PIP4K2C, PI4KB) and GAK (Table 4). Inhibitions curves from these compounds are shown in Supplementary Figure S3."}, "[4]": {"biological_target": "T4, CDC2L5 (Homo sapiens, UniProt Q14004)", "T4 construct": "purchased DiscoverX (KINOMEscan)", "assay": "kinome scan", "format": "binding", "details": "10 µM", "protocol": "as §1, §2"}, "[5]": {"biological_target": "T5, PFPK5(P.falciparum) (Plasmodium falciparum, UniProt P61075)", "T5 construct": "purchased DiscoverX (KINOMEscan)", "assay": "kinome scan", "format": "binding", "details": "10 µM", "protocol": "as §1, §2"}, "[6]": {"biological_target": "T6, PRP4 (Homo sapiens, UniProt Q13523)", "T6 construct": "purchased DiscoverX (KINOMEscan)", "assay": "kinome scan", "format": "binding", "details": "10 µM", "protocol": "as §1, §2"}, "[7]": {"biological_target": "T7, ACVR2A (Homo sapiens, UniProt P27037)", "T7 construct": "purchased DiscoverX (KINOMEscan)", "T7 sequence (P27037 20-513)": "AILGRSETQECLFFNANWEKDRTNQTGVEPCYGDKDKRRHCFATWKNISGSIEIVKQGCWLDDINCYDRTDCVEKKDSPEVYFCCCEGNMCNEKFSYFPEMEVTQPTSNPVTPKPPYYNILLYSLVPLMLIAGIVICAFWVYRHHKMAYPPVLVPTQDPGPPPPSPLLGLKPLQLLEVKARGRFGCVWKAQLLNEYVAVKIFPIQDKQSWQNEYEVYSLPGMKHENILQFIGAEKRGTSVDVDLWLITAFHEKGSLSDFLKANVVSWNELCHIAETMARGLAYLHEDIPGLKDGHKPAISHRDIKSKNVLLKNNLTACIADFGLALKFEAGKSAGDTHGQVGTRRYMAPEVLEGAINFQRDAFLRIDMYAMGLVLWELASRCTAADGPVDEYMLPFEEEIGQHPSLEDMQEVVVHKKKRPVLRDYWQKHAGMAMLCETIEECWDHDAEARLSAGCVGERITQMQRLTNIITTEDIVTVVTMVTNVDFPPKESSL", "assay": "kinome scan", "format": "binding", "details": "10 µM"}, "[8]": {"biological_target": "T8, BTK (Homo sapiens, UniProt Q06187)", "T8 construct": "purchased DiscoverX (KINOMEscan)", "assay": "kinome scan", "format": "binding", "details": "10 µM"}, "[9]": {"biological_target": "T9, EPHA7 (Homo sapiens, UniProt Q15375)", "T9 construct": "purchased DiscoverX (KINOMEscan)", "assay": "kinome scan", "format": "binding", "details": "10 µM"}, "[10]": {"biological_target": "T10, BRAF(V600E) (Homo sapiens, UniProt P15056, V600E)", "T10 construct": "purchased DiscoverX (KINOMEscan)", "T10 sequence (P15056 whole entry V600E)": "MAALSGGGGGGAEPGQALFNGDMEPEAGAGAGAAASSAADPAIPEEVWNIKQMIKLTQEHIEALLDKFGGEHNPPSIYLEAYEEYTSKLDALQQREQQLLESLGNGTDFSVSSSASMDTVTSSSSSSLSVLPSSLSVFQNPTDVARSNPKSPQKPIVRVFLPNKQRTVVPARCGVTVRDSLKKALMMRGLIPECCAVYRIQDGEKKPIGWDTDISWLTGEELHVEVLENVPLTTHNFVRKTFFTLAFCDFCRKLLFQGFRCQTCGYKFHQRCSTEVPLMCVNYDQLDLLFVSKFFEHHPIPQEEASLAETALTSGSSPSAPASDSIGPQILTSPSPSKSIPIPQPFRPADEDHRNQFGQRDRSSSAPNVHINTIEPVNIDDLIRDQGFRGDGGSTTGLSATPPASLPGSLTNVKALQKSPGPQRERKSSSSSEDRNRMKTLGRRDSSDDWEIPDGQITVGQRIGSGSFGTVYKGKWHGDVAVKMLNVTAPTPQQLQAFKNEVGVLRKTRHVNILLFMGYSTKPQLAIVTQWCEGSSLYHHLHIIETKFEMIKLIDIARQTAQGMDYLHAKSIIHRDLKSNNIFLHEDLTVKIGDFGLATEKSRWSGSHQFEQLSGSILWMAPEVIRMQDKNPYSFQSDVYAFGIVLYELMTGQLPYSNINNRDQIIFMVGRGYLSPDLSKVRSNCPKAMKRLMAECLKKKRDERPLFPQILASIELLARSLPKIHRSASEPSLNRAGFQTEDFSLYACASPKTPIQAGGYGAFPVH", "assay": "kinome scan", "format": "binding", "details": "10 µM"}, "[11]": {"biological_target": "T11, MEK5 (Homo sapiens, UniProt Q13163)", "T11 construct": "purchased DiscoverX (KINOMEscan)", "assay": "kinome scan", "format": "binding", "details": "10 µM"}, "[12]": {"biological_target": "T12, PIP5K2C (Homo sapiens, UniProt Q8TBX8)", "T12 construct": "purchased DiscoverX (KINOMEscan)", "assay": "kinome scan", "format": "binding"}, "[13]": {"biological_target": "T13, PIK3CA(Q546K) (Homo sapiens, UniProt P42336, Q546K)", "T13 construct": "purchased DiscoverX (KINOMEscan)", "T13 sequence (P42336 whole entry Q546K)": "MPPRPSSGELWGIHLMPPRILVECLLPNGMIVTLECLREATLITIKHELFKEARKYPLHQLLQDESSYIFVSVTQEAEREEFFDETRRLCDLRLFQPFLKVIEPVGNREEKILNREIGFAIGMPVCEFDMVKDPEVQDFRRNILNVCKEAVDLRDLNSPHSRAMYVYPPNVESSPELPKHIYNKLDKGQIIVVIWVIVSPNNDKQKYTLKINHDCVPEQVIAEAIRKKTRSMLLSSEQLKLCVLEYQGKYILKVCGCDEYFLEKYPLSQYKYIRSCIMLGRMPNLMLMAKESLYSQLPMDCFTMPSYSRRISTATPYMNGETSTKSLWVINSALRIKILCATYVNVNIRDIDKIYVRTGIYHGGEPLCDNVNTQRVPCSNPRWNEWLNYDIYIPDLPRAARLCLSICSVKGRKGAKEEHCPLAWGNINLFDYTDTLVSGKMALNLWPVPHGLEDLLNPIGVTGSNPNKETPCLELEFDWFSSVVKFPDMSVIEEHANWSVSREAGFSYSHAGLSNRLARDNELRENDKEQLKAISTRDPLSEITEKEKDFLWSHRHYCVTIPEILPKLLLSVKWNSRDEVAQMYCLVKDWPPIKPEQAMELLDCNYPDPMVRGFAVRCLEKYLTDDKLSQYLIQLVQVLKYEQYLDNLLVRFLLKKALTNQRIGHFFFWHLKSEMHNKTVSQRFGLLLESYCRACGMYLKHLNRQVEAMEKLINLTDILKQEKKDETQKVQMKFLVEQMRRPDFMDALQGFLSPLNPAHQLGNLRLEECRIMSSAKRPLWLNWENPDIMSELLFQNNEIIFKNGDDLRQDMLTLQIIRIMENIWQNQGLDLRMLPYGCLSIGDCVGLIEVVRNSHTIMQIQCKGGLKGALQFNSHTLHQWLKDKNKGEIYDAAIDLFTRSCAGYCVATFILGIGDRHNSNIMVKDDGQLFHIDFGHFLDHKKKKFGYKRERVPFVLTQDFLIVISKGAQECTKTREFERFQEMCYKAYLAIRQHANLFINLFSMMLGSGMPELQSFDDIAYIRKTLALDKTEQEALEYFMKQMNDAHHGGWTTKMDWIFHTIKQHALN", "assay": "kinome scan", "format": "binding", "details": "10 µM"}, "[14]": {"biological_target": "T14, CAMKK1 (Homo sapiens, UniProt Q8N5S9)", "T14 construct": "purchased DiscoverX (KINOMEscan)", "assay": "kinome scan", "format": "binding", "details": "10 µM"}, "[15]": {"biological_target": "T15, MET(Y1235D) (Homo sapiens, UniProt P08581, Y1235D)", "T15 construct": "purchased DiscoverX (KINOMEscan)", "assay": "kinome scan", "format": "binding", "details": "10 µM"}, "[16]": {"biological_target": "T16, ABL1(F317L)-phosphorylated (Homo sapiens, UniProt P00519, F317L)", "T16 construct": "purchased DiscoverX (KINOMEscan)", "assay": "kinome scan", "format": "binding", "details": "10 µM"}, "[17]": {"biological_target": "T17, LIMK1 (Homo sapiens, UniProt P53667)", "T17 construct": "purchased DiscoverX (KINOMEscan)", "assay": "kinome scan", "format": "binding", "details": "10 µM"}, "[18]": {"biological_target": "T18, LATS2 (Homo sapiens, UniProt Q9NRM7)", "T18 construct": "purchased DiscoverX (KINOMEscan)", "assay": "kinome scan", "format": "binding", "details": "10 µM"}, "[19]": {"biological_target": "T19, PIK3CG (Homo sapiens, UniProt P48736)", "T19 construct": "purchased DiscoverX (KINOMEscan)", "assay": "kinome scan", "format": "binding"}, "[20]": {"biological_target": "T20, FGFR2 (Homo sapiens, UniProt P21802)", "T20 construct": "purchased DiscoverX (KINOMEscan)", "assay": "kinome scan", "format": "binding", "details": "10 µM"}, "[21]": {"biological_target": "T21, EGFR(G719C) (Homo sapiens, UniProt P00533, G719C)", "T21 construct": "purchased DiscoverX (KINOMEscan)", "assay": "kinome scan", "format": "binding", "details": "10 µM"}, "[22]": {"biological_target": "T22, FGFR4 (Homo sapiens, UniProt P22455)", "T22 construct": "purchased DiscoverX (KINOMEscan)", "T22 sequence (P22455 22-802)": "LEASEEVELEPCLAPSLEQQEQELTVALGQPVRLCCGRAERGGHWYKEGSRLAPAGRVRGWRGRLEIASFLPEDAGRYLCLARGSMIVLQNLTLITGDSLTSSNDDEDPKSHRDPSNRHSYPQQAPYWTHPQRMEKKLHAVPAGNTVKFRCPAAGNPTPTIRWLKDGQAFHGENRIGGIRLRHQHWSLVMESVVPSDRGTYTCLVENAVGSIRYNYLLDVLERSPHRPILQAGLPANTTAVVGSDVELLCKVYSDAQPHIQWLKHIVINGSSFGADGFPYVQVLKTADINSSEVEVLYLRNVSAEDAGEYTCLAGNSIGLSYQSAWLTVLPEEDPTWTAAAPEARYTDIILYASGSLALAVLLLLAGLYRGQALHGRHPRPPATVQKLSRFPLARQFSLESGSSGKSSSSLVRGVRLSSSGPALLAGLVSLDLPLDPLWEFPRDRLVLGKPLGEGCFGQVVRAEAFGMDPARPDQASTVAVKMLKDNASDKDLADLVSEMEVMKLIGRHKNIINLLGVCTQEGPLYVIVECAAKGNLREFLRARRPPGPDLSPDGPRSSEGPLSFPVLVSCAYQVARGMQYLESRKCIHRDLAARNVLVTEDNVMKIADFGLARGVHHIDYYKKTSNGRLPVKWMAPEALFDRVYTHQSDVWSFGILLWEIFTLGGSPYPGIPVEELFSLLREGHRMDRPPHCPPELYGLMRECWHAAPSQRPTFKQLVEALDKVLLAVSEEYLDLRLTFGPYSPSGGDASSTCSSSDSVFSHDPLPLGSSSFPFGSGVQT", "assay": "kinome scan", "format": "binding", "details": "10 µM"}, "[23]": {"biological_target": "T23, DRAK1 (Homo sapiens, UniProt Q9UEE5)", "T23 construct": "purchased DiscoverX (KINOMEscan)", "assay": "kinome scan", "format": "binding", "details": "10 µM"}, "[24]": {"biological_target": "T24, MLK1 (Homo sapiens, UniProt P80192)", "T24 construct": "purchased DiscoverX (KINOMEscan)", "assay": "kinome scan", "format": "binding", "details": "10 µM"}, "[25]": {"biological_target": "T25, MARK3 (Homo sapiens, UniProt P27448)", "T25 construct": "purchased DiscoverX (KINOMEscan)", "assay": "kinome scan", "format": "binding", "details": "10 µM"}, "[26]": {"biological_target": "T26, TBK1 (Homo sapiens, UniProt Q9UHD2)", "T26 construct": "purchased DiscoverX (KINOMEscan)", "assay": "kinome scan", "format": "binding", "details": "10 µM"}, "[27]": {"biological_target": "T27, TNIK (Homo sapiens, UniProt Q9UKE5)", "T27 construct": "purchased DiscoverX (KINOMEscan)", "assay": "kinome scan", "format": "binding", "details": "10 µM"}, "[28]": {"system": "Tau Fibril Formation, Thioflavin T Binding", "set-up": "method as in CHEMBL1614421", "details": "reported activity, data mining; ref CHEMBL1614421; cited from earlier work"}, "[29]": {"biological_target": "T28, MYLK2 (Homo sapiens, UniProt Q9H1R3)", "T28 construct": "purchased DiscoverX (KINOMEscan)", "assay": "kinome scan", "format": "binding", "details": "10 µM"}, "[30]": {"biological_target": "T29, KIT(A829P) (Homo sapiens, UniProt P10721, A829P)", "T29 construct": "purchased DiscoverX (KINOMEscan)", "assay": "kinome scan", "format": "binding", "details": "10 µM"}, "[31]": {"biological_target": "T30, BRSK1 (Homo sapiens, UniProt Q8TDC3)", "T30 construct": "purchased DiscoverX (KINOMEscan)", "T30 sequence (Q8TDC3 whole entry)": "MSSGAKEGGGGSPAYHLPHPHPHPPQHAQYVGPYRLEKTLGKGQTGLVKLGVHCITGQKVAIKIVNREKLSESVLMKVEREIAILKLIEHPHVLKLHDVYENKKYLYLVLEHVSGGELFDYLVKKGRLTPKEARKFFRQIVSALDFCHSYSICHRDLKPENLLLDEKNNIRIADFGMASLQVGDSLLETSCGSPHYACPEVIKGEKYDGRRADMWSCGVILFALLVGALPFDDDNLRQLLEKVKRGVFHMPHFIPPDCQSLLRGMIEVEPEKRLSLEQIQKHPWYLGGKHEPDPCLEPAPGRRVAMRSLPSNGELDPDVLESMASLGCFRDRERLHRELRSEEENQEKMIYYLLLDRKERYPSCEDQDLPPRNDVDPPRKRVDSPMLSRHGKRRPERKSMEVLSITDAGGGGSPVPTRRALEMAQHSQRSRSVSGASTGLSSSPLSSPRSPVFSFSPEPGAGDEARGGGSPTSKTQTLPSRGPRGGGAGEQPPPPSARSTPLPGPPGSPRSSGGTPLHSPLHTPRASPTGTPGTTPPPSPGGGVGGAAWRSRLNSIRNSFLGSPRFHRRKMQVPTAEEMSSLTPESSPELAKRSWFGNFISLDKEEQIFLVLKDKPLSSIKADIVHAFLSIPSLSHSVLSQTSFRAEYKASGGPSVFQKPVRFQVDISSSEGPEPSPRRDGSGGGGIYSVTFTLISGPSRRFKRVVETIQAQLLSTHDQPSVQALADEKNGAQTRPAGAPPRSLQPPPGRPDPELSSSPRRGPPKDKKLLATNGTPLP", "assay": "kinome scan", "format": "binding", "details": "10 µM"}, "[32]": {"biological_target": "T31, AMPK-alpha1 (Homo sapiens, UniProt Q13131)", "T31 construct": "purchased DiscoverX (KINOMEscan)", "T31 sequence (Q13131 whole entry)": "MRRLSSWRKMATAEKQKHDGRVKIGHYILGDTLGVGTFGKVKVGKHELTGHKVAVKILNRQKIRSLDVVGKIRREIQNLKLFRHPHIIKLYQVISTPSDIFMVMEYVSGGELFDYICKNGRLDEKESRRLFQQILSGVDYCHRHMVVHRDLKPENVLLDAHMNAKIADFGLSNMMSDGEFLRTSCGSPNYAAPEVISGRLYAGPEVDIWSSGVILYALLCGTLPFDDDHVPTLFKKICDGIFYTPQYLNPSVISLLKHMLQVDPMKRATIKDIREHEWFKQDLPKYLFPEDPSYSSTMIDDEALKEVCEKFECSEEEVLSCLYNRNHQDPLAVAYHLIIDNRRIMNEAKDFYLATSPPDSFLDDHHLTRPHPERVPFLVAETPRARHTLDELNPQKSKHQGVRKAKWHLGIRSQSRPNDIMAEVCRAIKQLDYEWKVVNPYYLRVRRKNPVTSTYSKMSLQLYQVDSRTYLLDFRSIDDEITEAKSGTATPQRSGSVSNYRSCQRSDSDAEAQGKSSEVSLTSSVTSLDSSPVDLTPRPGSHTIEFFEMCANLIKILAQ", "assay": "kinome scan", "format": "binding", "details": "10 µM"}}, "data": [{"smiles": "Nc1ccc(N=Nc2ccccc2)c(N)n1", "note": "[phenazopyridine, 2,6-diamino-3-(phenylazo)pyridine]", "values": [{"measurement": "kinase inhibition", "setting": "[1]", "result": 88}, {"measurement": "kinase inhibition", "setting": "[2]", "result": 99}, {"measurement": "kinase inhibition", "setting": "[3]", "result": 100}, {"measurement": "kinase inhibition", "setting": "[4]", "result": 100}, {"measurement": "kinase inhibition", "setting": "[5]", "result": 89}, {"measurement": "kinase bound, % of DMSO control", "setting": "[6]", "result": 100}, {"measurement": "kinase inhibition", "setting": "[7]", "result": 94}, {"measurement": "kinase inhibition", "setting": "[8]", "result": 100}, {"measurement": "kinase inhibition", "setting": "[9]", "result": 91}, {"measurement": "kinase inhibition", "setting": "[10]", "result": 92}, {"measurement": "kinase inhibition", "setting": "[11]", "result": 90}, {"measurement": "remaining binding (% of control)", "setting": "[12]; 10 µM", "result": 2.3}, {"measurement": "remaining binding at 10 µM", "setting": "[12]; read-out: % Of control", "result": 2.3, "unit": "%"}, {"measurement": "kinase inhibition", "setting": "[13]", "result": 100}, {"measurement": "kinase inhibition", "setting": "[14]", "result": 100}, {"measurement": "kinase inhibition", "setting": "[15]", "result": 100}, {"measurement": "kinase inhibition", "setting": "[16]", "result": 64}, {"measurement": "kinase inhibition", "setting": "[17]", "result": 100}, {"measurement": "kinase inhibition", "setting": "[18]", "result": 100}, {"measurement": "percent of control (remaining binding)", "setting": "[19]; 10 µM", "result": 27}, {"measurement": "remaining binding at 10 µM", "setting": "[19]; read-out: Kinome scan (% of control at 10 µM)", "result": 27, "unit": "%"}, {"measurement": "kinase inhibition", "setting": "[20]", "result": 93}, {"measurement": "kinase inhibition", "setting": "[21]", "result": 80}, {"measurement": "kinase inhibition", "setting": "[22]", "result": 91}, {"measurement": "kinase inhibition", "setting": "[23]", "result": 45}, {"measurement": "kinase inhibition", "setting": "[24]", "result": 87}, {"measurement": "kinase inhibition", "setting": "[25]", "result": 100}, {"measurement": "kinase inhibition", "setting": "[26]", "result": 100}, {"measurement": "kinase inhibition", "setting": "[27]", "result": 75}, {"measurement": "Concentration", "setting": "[28]", "result": 3.9, "unit": "µM"}, {"measurement": "kinase inhibition", "setting": "[29]", "result": 91}, {"measurement": "kinase inhibition", "setting": "[30]", "result": 95}, {"measurement": "kinase inhibition", "setting": "[31]", "result": 62}, {"measurement": "kinase inhibition", "setting": "[32]", "result": 99}]}]}
